Literature values in paper PMC8696521 (RSC Advances, 2021).
Where two headings read alike, the source gives them in different places.

Experiments:
[1] = test system: ACE; settings: for Category of ACEI peptide by interaction with ACE: reduced IC50 values following incubation with ACE
[2] = peptide from P. fucata muscle

**Q.** For FHAPWK, which ACE inhibition pattern [1] is on record?
**A.** competitive inhibitors

**Q.** Which Antioxidant activity [2] does the source give for GAGLPGKRER here?
**A.** strong antioxidant activity

**Q.** Which “ACEI IC50” value ([1]; from pearl oyster shell protein hydrolysate) does the source give for GVGSPY here?
**A.** 5.82 µg/mL

**Q.** With IKPVA as the substance, how does the “Category of ACEI peptide by interaction with ACE” value [1] read?
**A.** pro-drug substrates

**Q.** With IKPVQ as the substance, how does the “Category of ACEI peptide by interaction with ACE” value [1] read?
**A.** pro-drug substrates

**Q.** Which IC50 ([1]; read-out: ACEI IC50) does the source give for LIVT here?
**A.** 110 nM

**Q.** For LSGYGP, which ACE inhibition pattern [1] is on record?
**A.** noncompetitive

**Q.** With VVSLSIPR as the substance, how does the ACE inhibition pattern [1] read?
**A.** competitive inhibitors

**Q.** For WVYY, which ACE inhibition pattern ([1]; hemp seed protein hydrolysate peptides) is on record?
**A.** mixed-mode type of ACE inhibition
